# Data as given in US10392391B2 (Vertex Pharmaceuticals Incorporated, priority 2012, dated 2019).
# Target: ATR kinase (full-length ATR) (Homo sapiens (Human), UniProt Q13535)
# Assay: ATR inhibition assay (radioactive-phosphate incorporation)
# Type: biochemical
# Details: not given
# How it was run: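 Radiometric 33P incorporation by 5 nM full-length ATR into 800 μM target peptide with 10 μM [γ-33P]ATP, in 50 mM Tris/HCl pH 7.5, 10 mM MgCl2, 1 mM DTT, 7% DMSO, 25° C. Compound pre-incubated 10 minutes; reaction stopped after 24 hours, captured on phosphocellulose. Ki(app) from non-linear regression of initial rates.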
# Sequence of ATR kinase (full-length ATR) (Q13535 whole entry): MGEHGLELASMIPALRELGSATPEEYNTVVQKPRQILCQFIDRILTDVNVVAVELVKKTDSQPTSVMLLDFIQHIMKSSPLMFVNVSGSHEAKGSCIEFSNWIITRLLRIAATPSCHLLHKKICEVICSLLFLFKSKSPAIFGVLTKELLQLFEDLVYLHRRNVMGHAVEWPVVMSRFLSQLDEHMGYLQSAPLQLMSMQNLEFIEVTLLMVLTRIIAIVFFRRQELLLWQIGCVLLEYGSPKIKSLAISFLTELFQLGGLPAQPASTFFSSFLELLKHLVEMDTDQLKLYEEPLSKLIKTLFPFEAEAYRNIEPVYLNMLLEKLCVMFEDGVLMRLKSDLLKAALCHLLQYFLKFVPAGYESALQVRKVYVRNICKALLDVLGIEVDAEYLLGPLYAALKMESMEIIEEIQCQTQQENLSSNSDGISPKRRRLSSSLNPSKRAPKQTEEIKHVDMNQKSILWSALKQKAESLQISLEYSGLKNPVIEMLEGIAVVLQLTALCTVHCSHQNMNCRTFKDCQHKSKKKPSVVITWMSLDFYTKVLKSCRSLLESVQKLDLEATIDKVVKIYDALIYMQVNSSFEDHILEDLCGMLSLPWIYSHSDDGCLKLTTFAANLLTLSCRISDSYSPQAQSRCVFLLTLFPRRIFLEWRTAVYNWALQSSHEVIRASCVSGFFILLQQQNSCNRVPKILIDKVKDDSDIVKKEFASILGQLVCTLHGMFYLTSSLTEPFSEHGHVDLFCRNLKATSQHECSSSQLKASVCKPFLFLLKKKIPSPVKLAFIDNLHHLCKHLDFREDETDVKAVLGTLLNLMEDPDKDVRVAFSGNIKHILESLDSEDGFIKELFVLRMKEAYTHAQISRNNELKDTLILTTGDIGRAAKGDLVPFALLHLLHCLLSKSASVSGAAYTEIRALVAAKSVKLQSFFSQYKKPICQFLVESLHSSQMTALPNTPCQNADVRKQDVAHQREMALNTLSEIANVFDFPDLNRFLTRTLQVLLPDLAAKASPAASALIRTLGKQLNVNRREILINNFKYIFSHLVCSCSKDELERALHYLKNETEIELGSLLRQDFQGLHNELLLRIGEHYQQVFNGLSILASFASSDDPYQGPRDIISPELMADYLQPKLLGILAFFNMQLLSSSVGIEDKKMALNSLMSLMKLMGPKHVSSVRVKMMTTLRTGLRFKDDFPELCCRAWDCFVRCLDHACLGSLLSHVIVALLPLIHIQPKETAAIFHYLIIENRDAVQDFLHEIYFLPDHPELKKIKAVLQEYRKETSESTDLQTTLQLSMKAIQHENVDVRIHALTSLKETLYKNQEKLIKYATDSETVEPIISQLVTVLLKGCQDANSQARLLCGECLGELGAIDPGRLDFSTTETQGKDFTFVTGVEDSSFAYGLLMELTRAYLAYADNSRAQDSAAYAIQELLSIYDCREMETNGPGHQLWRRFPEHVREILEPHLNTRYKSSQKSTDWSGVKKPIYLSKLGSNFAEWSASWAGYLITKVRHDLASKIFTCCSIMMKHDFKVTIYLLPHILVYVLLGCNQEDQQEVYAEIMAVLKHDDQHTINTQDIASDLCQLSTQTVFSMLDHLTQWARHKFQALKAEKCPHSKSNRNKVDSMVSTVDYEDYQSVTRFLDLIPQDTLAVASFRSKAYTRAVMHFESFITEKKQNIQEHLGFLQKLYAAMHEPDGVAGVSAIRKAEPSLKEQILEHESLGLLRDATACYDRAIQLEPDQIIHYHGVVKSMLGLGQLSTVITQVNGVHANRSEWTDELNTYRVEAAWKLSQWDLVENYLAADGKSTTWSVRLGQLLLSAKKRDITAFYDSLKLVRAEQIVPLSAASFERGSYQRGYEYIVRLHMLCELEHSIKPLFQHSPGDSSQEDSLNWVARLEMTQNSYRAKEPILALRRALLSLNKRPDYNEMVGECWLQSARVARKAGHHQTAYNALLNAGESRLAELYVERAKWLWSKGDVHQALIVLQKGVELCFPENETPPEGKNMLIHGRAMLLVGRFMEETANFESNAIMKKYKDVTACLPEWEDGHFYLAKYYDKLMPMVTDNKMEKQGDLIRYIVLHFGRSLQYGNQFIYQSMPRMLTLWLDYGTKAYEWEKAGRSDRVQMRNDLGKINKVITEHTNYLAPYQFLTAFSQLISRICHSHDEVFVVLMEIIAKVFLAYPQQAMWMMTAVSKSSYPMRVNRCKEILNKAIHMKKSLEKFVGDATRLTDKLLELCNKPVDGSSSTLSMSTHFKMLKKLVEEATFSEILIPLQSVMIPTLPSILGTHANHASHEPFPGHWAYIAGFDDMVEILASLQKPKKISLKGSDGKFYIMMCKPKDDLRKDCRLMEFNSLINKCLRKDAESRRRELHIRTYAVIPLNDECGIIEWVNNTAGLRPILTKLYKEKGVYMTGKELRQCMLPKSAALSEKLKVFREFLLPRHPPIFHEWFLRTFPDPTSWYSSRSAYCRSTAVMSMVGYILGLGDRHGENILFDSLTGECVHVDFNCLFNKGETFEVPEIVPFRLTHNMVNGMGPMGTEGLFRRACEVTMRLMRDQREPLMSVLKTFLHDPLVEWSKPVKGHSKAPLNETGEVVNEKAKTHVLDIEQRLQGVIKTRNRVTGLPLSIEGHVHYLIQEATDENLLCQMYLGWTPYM
row,Ki [µM],SMILES
1,1 to 5,"CN1CCN(C(=O)C2CCN(c3c(F)cncc3NC(=O)c3c(N)nn4cc(F)cnc34)C2)CC1 (stereo not drawn) [I-N-191, 2-amino-6-fluoro-N-(5-fluoro-4-(3-(4-methylpiperazine-1-carbonyl)pyrrolidin-1-yl)pyridin-3-yl)pyrazolo[1,5-a]pyrimidine-3-carboxamide]"

# Same assay, conditions: Ki(app), 5 nM full-length ATR, 10 μM ATP, 25° C.
row,SMILES,Ki [µM]
1,"CS(=O)(=O)N1CCN(c2ccncc2NC(=O)c2c(N)nn3cc(F)cnc23)CC1 [I-N-178, 2-amino-6-fluoro-N-(4-(4-(methylsulfonyl)piperazin-1-yl)pyridin-3-yl)pyrazolo[1,5-a]pyrimidine-3-carboxamide]",0.01 to 1
2,"Nc1nn2cc(F)cnc2c1C(=O)Nc1cnccc1N1CCN(S(=O)(=O)C2CCOC2)CC1 (stereo not drawn) [I-N-179, 2-amino-6-fluoro-N-(4-(4-((tetrahydrofuran-3-yl)sulfonyl)piperazin-1-yl)pyridin-3-yl)pyrazolo[1,5-a]pyrimidine-3-carboxamide]",0.01 to 1
3,"Nc1nn2cc(F)cnc2c1C(=O)Nc1cncc(F)c1N1CCN2C(=O)CC[C@@H]2C1 [I-N-182, (R)-2-amino-6-fluoro-N-(5-fluoro-4-(6-oxohexahydropyrrolo[1,2-a]pyrazin-2(1H)-yl)pyridin-3-yl)pyrazolo[1,5-a]pyrimidine-3-carboxamide]",0.01 to 1
4,"Nc1nn2cc(F)cnc2c1C(=O)Nc1cncc(F)c1N1CCC(c2nccs2)CC1 [I-N-184, 2-amino-6-fluoro-N-(5-fluoro-4-(4-(thiazol-2-yl)piperidin-1-yl)pyridin-3-yl)pyrazolo[1,5-a]pyrimidine-3-carboxamide]",0.01 to 1
5,"CCN1CCCC1C(=O)N1CCN(c2c(F)cncc2NC(=O)c2c(N)nn3cc(F)cnc23)CC1 (stereo not drawn) [I-N-185, 2-amino-N-(4-(4-(1-ethylpyrrolidine-2-carbonyl)piperazin-1-yl)-5-fluoropyridin-3-yl)-6-fluoropyrazolo[1,5-a]pyrimidine-3-carboxamide]",0.01 to 1
6,"Nc1nn2cc(F)cnc2c1C(=O)Nc1cncc(F)c1N1CCN(C(=O)CN2CCCC2)CC1 [I-N-187, 2-amino-6-fluoro-N-(5-fluoro-4-(4-(2-(pyrrolidin-1-yl)acetyl)piperazin-1-yl)pyridin-3-yl)pyrazolo[1,5-a]pyrimidine-3-carboxamide]",0.01 to 1
7,"CS(=O)(=O)C1CCN(c2ccncc2NC(=O)c2c(N)nn3cc(F)cnc23)CC1 [I-N-190, 2-amino-6-fluoro-N-(4-(4-(methylsulfonyl)piperidin-1-yl)pyridin-3-yl)pyrazolo[1,5-a]pyrimidine-3-carboxamide]",0.01 to 1
8,"CN1CCN(CC2CCN(c3c(F)cncc3NC(=O)c3c(N)nn4cc(C5(C#N)CC5)cnc34)CC2)CC1 [I-N-192, 2-amino-6-(1-cyanocyclopropyl)-N-(5-fluoro-4-(4-((4-methylpiperazin-1-yl)methyl)piperidin-1-yl)pyridin-3-yl)pyrazolo[1,5-a]pyrimidine-3-carboxamide]",0.01 to 1
9,"CN1CCN(CC2CCN(c3c(F)cncc3NC(=O)c3c(N)nn4cc(F)cnc34)CC2)C(=O)C1 [I-N-193, 2-amino-6-fluoro-N-(5-fluoro-4-(4-((4-methyl-2-oxopiperazin-1-yl)methyl)piperidin-1-yl)pyridin-3-yl)pyrazolo[1,5-a]pyrimidine-3-carboxamide]",0.01 to 1
10,CN1CC(C(=O)N2CCN(c3c(F)cncc3NC(=O)c3c(N)nn4cc(F)cnc34)CC2)C1 [I-N-194],0.01 to 1
11,"Nc1nn2cc(F)cnc2c1C(=O)Nc1cnccc1N1CCN(S(=O)(=O)C2COC2)CC1 [I-N-195, 2-amino-6-fluoro-N-(4-(4-(oxetan-3-ylsulfonyl)piperazin-1-yl)pyridin-3-yl)pyrazolo[1,5-a]pyrimidine-3-carboxamide]",0.01 to 1
12,"CN1CCC[C@@H]1C(=O)N1CCN(c2ccncc2NC(=O)c2c(N)nn3cc(F)cnc23)CC1 [I-N-199, (R)-2-amino-6-fluoro-N-(4-(4-(1-methylpyrrolidine-2-carbonyl)piperazin-1-yl)pyridin-3-yl)pyrazolo[1,5-a]pyrimidine-3-carboxamide]",0.01 to 1
13,Nc1nn2cc(F)cnc2c1C(=O)Nc1cncc(F)c1N1CCN(S(=O)(=O)C2COC2)CC1 [I-N-201],0.01 to 1

# More lines, now with the values ahead:
row,Ki [µM],SMILES
1,0.01 to 1,"Nc1nn2cc(F)cnc2c1C(=O)Nc1cnccc1N1CCN(S(=O)(=O)C2CCOCC2)CC1 [I-N-177, 2-amino-6-fluoro-N-(4-(4-((tetrahydro-2H-pyran-4-yl)sulfonyl)piperazin-1-yl)pyridin-3-yl)pyrazolo[1,5-a]pyrimidine-3-carboxamide]"
2,0.01 to 1,"N#CC1(c2cnc3c(C(=O)Nc4cncc(F)c4N4CCN(C5COC5)CC4)c(N)nn3c2)CC1 [I-N-180, 2-amino-6-(1-cyanocyclopropyl)-N-(5-fluoro-4-(4-(oxetan-3-yl)piperazin-1-yl)pyridin-3-yl)pyrazolo[1,5-a]pyrimidine-3-carboxamide]"
3,0.01 to 1,"CN1CCC[C@@H]1C(=O)N1CCN(c2c(F)cncc2NC(=O)c2c(N)nn3cc(F)cnc23)CC1 [I-N-181, (R)-2-amino-6-fluoro-N-(5-fluoro-4-(4-(1-methylpyrrolidine-2-carbonyl)piperazin-1-yl)pyridin-3-yl)pyrazolo[1,5-a]pyrimidine-3-carboxamide]"
4,0.01 to 1,"CN1CCOC2(CCN(c3ccncc3NC(=O)c3c(N)nn4cc(F)cnc34)CC2)C1 [I-N-183, 2-amino-6-fluoro-N-(4-(4-methyl-1-oxa-4,9-diazaspiro[5.5]undecan-9-yl)pyridin-3-yl)pyrazolo[1,5-a]pyrimidine-3-carboxamide]"
5,0.01 to 1,"CN1CCC(S(=O)(=O)N2CCN(c3ccncc3NC(=O)c3c(N)nn4cc(F)cnc34)CC2)CC1 [I-N-188, 2-amino-6-fluoro-N-(4-(4-((1-methylpiperidin-4-yl)sulfonyl)piperazin-1-yl)pyridin-3-yl)pyrazolo[1,5-a]pyrimidine-3-carboxamide]"
6,0.01 to 1,"Nc1nn2cc(F)cnc2c1C(=O)Nc1cncc(F)c1N1CCC(N2CCOCC2)CC1 [I-N-189, 2-amino-6-fluoro-N-(5-fluoro-4-(4-morpholinopiperidin-1-yl)pyridin-3-yl)pyrazolo[1,5-a]pyrimidine-3-carboxamide]"
7,0.01 to 1,"Nc1nn2cc(F)cnc2c1C(=O)Nc1cnccc1N1CCC(S(=O)(=O)N2CCN3CCC2CC3)CC1 [I-N-196, N-(4-(4-(1,4-diazabicyclo[3.2.2]nonan-4-ylsulfonyl)piperidin-1-yl)pyridin-3-yl)-2-amino-6-fluoropyrazolo[1,5-a]pyrimidine-3-carboxamide]"
8,0.01 to 1,"Nc1nn2cc(F)cnc2c1C(=O)Nc1cnccc1N1CCC(CN2CCC(F)(F)C2)CC1 [I-N-197, 2-amino-N-(4-(4-((3,3-difluoropyrrolidin-1-yl)methyl)piperidin-1-yl)pyridin-3-yl)-6-fluoropyrazolo[1,5-a]pyrimidine-3-carboxamide]"
9,0.01 to 1,"CN1CCC[C@H]1C(=O)N1CCN(c2ccncc2NC(=O)c2c(N)nn3cc(F)cnc23)CC1 [I-N-198, (S)-2-amino-6-fluoro-N-(4-(4-(1-methylpyrrolidine-2-carbonyl)piperazin-1-yl)pyridin-3-yl)pyrazolo[1,5-a]pyrimidine-3-carboxamide]"
10,0.01 to 1,"Nc1nn2cc(F)cnc2c1C(=O)Nc1cnccc1N1CCC(S(=O)(=O)C2COC2)CC1 [I-N-200, 2-amino-6-fluoro-N-(4-(4-(oxetan-3-ylsulfonyl)piperidin-1-yl)pyridin-3-yl)pyrazolo[1,5-a]pyrimidine-3-carboxamide]"
